Reference: US12098407B2, “Methods for decoupling yield and productivity of a non-catabolic compound produced by a host cell” (AMYRIS, INC., priority 2019, dated 2024)
Like-named read-outs stand apart in the source and are kept apart here.

Assays:
biomass yield = test: Concentration of weak organic acid required to reduce the biomass yield to 50% of the reference condition; type: cell-based; conditions: concentration required to reduce the biomass yield to 50% of the reference condition
HMGR from P. mevalonii = target: T1, HMGR from P. mevalonii (Pseudomonas mevalonii, UniProt P13702); conditions: class II HMGR, source P. mevalonii; read-out: Km^NADH; cited from earlier work
T1 sequence (P13702 1-428): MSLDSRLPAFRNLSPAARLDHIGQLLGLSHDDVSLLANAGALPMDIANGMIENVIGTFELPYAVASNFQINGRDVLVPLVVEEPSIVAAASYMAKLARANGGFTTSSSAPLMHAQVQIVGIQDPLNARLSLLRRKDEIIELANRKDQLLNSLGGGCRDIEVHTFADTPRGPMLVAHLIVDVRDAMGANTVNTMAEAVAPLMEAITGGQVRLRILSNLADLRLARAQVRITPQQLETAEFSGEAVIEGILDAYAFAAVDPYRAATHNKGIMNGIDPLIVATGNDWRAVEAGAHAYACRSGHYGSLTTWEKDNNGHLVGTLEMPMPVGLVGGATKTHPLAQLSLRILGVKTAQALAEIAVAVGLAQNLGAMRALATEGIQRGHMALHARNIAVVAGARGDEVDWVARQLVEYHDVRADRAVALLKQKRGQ

HMGR from A. fulgidus = target: T2, HMGR from A. fulgidus (Archaeoglobus fulgidus, UniProt O28538); conditions: class II HMGR, source A. fulgidus, cited from earlier work
T2 sequence (O28538 1-436): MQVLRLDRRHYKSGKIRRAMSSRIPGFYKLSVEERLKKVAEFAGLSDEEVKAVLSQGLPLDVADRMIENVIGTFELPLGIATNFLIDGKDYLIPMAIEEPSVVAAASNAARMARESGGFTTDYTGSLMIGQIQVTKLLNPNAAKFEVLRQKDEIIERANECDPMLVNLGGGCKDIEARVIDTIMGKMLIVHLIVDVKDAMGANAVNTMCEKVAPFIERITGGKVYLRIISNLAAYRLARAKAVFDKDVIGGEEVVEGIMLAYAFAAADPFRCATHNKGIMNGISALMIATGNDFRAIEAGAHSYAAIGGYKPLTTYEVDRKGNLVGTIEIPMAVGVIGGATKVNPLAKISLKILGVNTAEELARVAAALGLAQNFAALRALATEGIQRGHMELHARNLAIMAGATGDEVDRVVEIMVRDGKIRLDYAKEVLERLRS

HMGR from S. aureus = conditions: class II HMGR, source S. aureus, cited from earlier work
HMGR from E. faecalis = HMGR from E. faecalis (Enterococcus faecalis, UniProt Q9FD70); conditions: class II HMGR, source E. faecalis; read-out: Km^NADPH; cited from earlier work
[1] = system: farnesene-producing strain; test: Farnesene-producing strain treated with different concentrations of benzoic acid; type: cell-based; conditions: FIG. 8
Protocol: Benzoic acid can be used to deplete ATP in the cell by forcing the cells to use ATP to pump out excess protons that are moved into the cytoplasm by the benzoyl […]. […] The yield (qP/qS) was calculated from measured specific sugar uptake rate and specific farnesene production rate.
Single colonies were grown on CSM agar plates, then picked into sterile 96-well microtiter plates (1.1 mL working volume Axygen) containing 360 ul of defined liquid growth medium (LGM; as referenced in Example 1, Westfall et al, 2012) with 50 mM succinate (pH 5.0) and 2% sucrose+1% maltose+2 g/L lysine grown for 72 h at 28 C. […] Taking measurements of farnesene, biomass, and total residual sugar during log phase growth (at two times, T1 and T2) allows for the determination of specific productivity, growth rate, and specific sugar uptake rate. Farnesene is measured using full-well extraction with isopropanol, and quantified by UV absorbance at 220 nm with reference to a standard curve. Biomass was measured by assaying the fluorescent signal of intracellular tryptophan with an excitation wavelength of 290 nm and detection at 350 nm (UVOD). The relationship between this tryptophan signal and actual biomass is strain-dependent, and is determined empirically for each strain assayed. We do this by measuring both UVOD and biomass absorbance (OD) just prior to the start of production plates; this gives a per-well OD/UVOD conversion factor that is then used to convert UVOD signal at the end of production runs back to biomass. Another conversion we must make in determining biomass is from optical density (OD) to dry cell weight; this is also determined empirically. […] Growth rates were determined by applying a linear regression to LN (OD) vs time. Total reducing sugars was measured by using an enzymatic determination of sucrose, fructose and glucose with an output of NADH absorption read at 340 nm, as described in various commercial kits, as such those sold by Sigma Aldrich.

[2] = increasing concentrations of benzoic acid

Work on `CCC(=O)O` [Propionic Acid] yielded a YCR50 (biomass yield) of 20.0 mM.
In the case of `NC(=O)C1=CN([C@@H]2O[C@H](COP(=O)(O)OP(=O)(O)OC[C@H]3O[C@@H](n4cnc5c(N)ncnc54)[C@H](O)[C@@H]3O)[C@@H](O)[C@H]2O)C=CC1` [NADH], the Km (HMGR from P. mevalonii) is listed as 80 µM, the Km (HMGR from A. fulgidus; read-out: Km^NADH) is listed as 160 µM and the Km (HMGR from S. aureus; read-out: Km^NADH) is listed as 100 µM.
`C/C=C/C=C/C(=O)O` [Sorbic Acid] showed a YCR50 (biomass yield) of 1.3 mM.
`CC(=O)O` [Acetic Acid] showed a YCR50 (biomass yield) of 105.0 mM.
For `NC(=O)C1=CN([C@@H]2O[C@H](COP(=O)(O)OP(=O)(O)OC[C@H]3O[C@@H](n4cnc5c(N)ncnc54)[C@H](OP(=O)(O)O)[C@@H]3O)[C@@H](O)[C@H]2O)C=CC1` [NADPH], the Km (HMGR from A. fulgidus; read-out: Km^NADPH) is listed as 500 µM, the Km (HMGR from S. aureus; read-out: Km^NADPH) is listed as 70 µM and the Km (HMGR from E. faecalis) is listed as 30 µM.
With `O=C(O)c1ccccc1` [Benzoic Acid] the YCR50 (biomass yield) was 2.0 mM, the “calculated yield (qP/qS)” value ([1]; increased benzoic acid concentrations) was “increased” and the “specific farnesene productivity (qP)” value [1, 2] was “did not change and even increased a little at intermediate concentrations”. For the same compound, the “specific growth rate (mu)” value [1, 2] was “decreased linearly”.
